System: strains of Enterobacteriaceae producing various carbapenemases (class A, D and B; 169 strains)
Test: Meropenem or tebipenem potentiation by Compounds 97 or 62 (MIC)
Format: cell-based
Description: The largest panel of clinical isolates expressing class A, D and B carbapenemases alone or in combination with other beta-lactamases (169 strains) was used to evaluate carbapenem potentiation activity of Compounds 97 and 62. MIC for meropenem and tebipenem of these strains were determined either alone or in the presence of Compounds 97 or 62, respectively, at a fixed concentration of 8 μg/ml in the growth media.

C[C@@H](O)[C@H]1C(=O)N2C(C(=O)O)=C(S[C@@H]3CN[C@H](C(=O)N(C)C)C3)[C@H](C)[C@H]12 [M]
Meropenem MIC alone (M) (KP1182 Klebsiella pneumoniae SHV-OSBL(2b), NDM-1, OXA-232(c)): Z (MIC of greater than 10 μg/mL) | Meropenem MIC alone (M) (KP1183 Klebsiella pneumoniae SHV-OSBL(2b), TEM-OSBL(2b), CTX-M-15, NDM-1): Z (MIC of greater than 10 μg/mL) | Meropenem MIC alone (M) (KP1184 Klebsiella pneumoniae SHV-OSBL(2b), IMP-1): Y (MIC of 1 μg/mL to 10 μg/mL) | Meropenem MIC alone (M) (KP1185 Klebsiella pneumoniae SHV-OSBL(2b), TEM-OSBL(2b), IMP-4): Z (MIC of greater than 10 μg/mL) | Meropenem MIC alone (M) (KP1186 Klebsiella pneumoniae CTX-M-15, NDM-1): Z (MIC of greater than 10 μg/mL) | Meropenem MIC alone (M) (KP1187 Klebsiella pneumoniae SHV-55(2be), TEM-OSBL(2b), CTX-M-15, NDM-1): Z (MIC of greater than 10 μg/mL) | Meropenem MIC alone (M) (KP1188 Klebsiella pneumoniae SHV-OSBL(2b), CTX-M-15, NDM-1): Y (MIC of 1 μg/mL to 10 μg/mL) | Meropenem MIC alone (M) (KP1189 Klebsiella pneumoniae TEM-OSBL(2b), CTX-M-15, CTX-M-27, NDM-1): Z (MIC of greater than 10 μg/mL) | Meropenem MIC alone (M) (KP1190 Klebsiella pneumoniae KPC-4 VIM-4 TEM SHV): Z (MIC of greater than 10 μg/mL) | Meropenem MIC alone (M) (KP1191 Klebsiella pneumoniae KPC-2): Z (MIC of greater than 10 μg/mL) | Meropenem MIC alone (M) (KP1192 Klebsiella pneumoniae KPC-2 TEM SHV): Z (MIC of greater than 10 μg/mL) | Meropenem MIC alone (M) (KP1193 Klebsiella pneumoniae KPC-3 TEM SHV): Z (MIC of greater than 10 μg/mL) | Meropenem MIC alone (M) (KP1194 Klebsiella pneumoniae KPC TEM SHV): Z (MIC of greater than 10 μg/mL) | Meropenem MIC alone (M) (KP1195 Klebsiella pneumoniae KPC TEM CTX-M-15): Z (MIC of greater than 10 μg/mL) | Meropenem MIC alone (M) (KP1196 Klebsiella pneumoniae KPC TEM SHV CTX-M-15 CMY): Z (MIC of greater than 10 μg/mL) | Meropenem MIC alone (M) (KP1197 Klebsiella pneumoniae KPC-3, VIM-1 TEM SHV): Z (MIC of greater than 10 μg/mL) | Meropenem MIC alone (M) (KP1198 Klebsiella pneumoniae KPC-3, VIM-1 TEM SHV): Z (MIC of greater than 10 μg/mL) | Meropenem MIC alone (M) (KP1199 Klebsiella pneumoniae KPC-3 TEM SHV): Z (MIC of greater than 10 μg/mL) | Meropenem MIC alone (M) (KP1200 Klebsiella pneumoniae KPC-3 TEM SHV): Z (MIC of greater than 10 μg/mL) | Meropenem MIC alone (M) (KP1210 Klebsiella pneumoniae KPC SHV TEM): Z (MIC of greater than 10 μg/mL) | Meropenem MIC alone (M) (KP1211 Klebsiella pneumoniae KPC SHV TEM CTX-M-15): Z (MIC of greater than 10 μg/mL) | Meropenem MIC alone (M) (KP1212 Klebsiella pneumoniae KPC SHV TEM CTX-M-15): Z (MIC of greater than 10 μg/mL) | Meropenem MIC alone (M) (KP1213 Klebsiella pneumoniae KPC SHV TEM CTX-M-15): Z (MIC of greater than 10 μg/mL) | Meropenem MIC alone (M) (KP1214 Klebsiella pneumoniae KPC SHV TEM + 1.9 kb): Z (MIC of greater than 10 μg/mL) | Meropenem MIC alone (M) (KP1215 Klebsiella pneumoniae KPC SHV): Z (MIC of greater than 10 μg/mL) | Meropenem MIC alone (M) (KP1216 Klebsiella pneumoniae KPC SHV TEM + 1.9 kb): Z (MIC of greater than 10 μg/mL) | Meropenem MIC alone (M) (KP1217 Klebsiella pneumoniae KPC SHV TEM + 1.9 kb): Z (MIC of greater than 10 μg/mL) | Meropenem MIC alone (M) (KP1218 Klebsiella pneumoniae KPC SHV TEM + 1.9 kb): Z (MIC of greater than 10 μg/mL) | Meropenem MIC alone (M) (KP1219 Klebsiella pneumoniae KPC SHV TEM + 1.9 kb): Z (MIC of greater than 10 μg/mL) | Meropenem MIC alone (M) (KP1220 Klebsiella pneumoniae KPC SHV TEM + 1.9 kb): Z (MIC of greater than 10 μg/mL) | Meropenem MIC alone (M) (KP1221 Klebsiella pneumoniae KPC SHV TEM + 1.9 kb): Z (MIC of greater than 10 μg/mL) | Meropenem MIC alone (M) (KP1222 Klebsiella pneumoniae KPC SHV TEM IMP): Z (MIC of greater than 10 μg/mL) | Meropenem MIC alone (M) (KP1223 Klebsiella pneumoniae KPC SHV TEM): Z (MIC of greater than 10 μg/mL) | Meropenem MIC alone (M) (KP1224 Klebsiella pneumoniae KPC SHV TEM): Z (MIC of greater than 10 μg/mL) | Meropenem MIC alone (M) (KP1225 Klebsiella pneumoniae KPC SHV TEM + 1.9 kb CMY): Z (MIC of greater than 10 μg/mL) | Meropenem MIC alone (M) (KP1226 Klebsiella pneumoniae KPC SHV TEM + 1.9 kb): Z (MIC of greater than 10 μg/mL) | Meropenem MIC alone (M) (KP1227 Klebsiella pneumoniae KPC SHV TEM CTX-M-15): Z (MIC of greater than 10 μg/mL) | Meropenem MIC alone (M) (KP1228 Klebsiella pneumoniae OXA-48 TEM SHV CTX-M-15): Y (MIC of 1 μg/mL to 10 μg/mL) | Meropenem MIC alone (M) (KP1229 Klebsiella pneumoniae OXA-48 TEM SHV CTX-M-15): Z (MIC of greater than 10 μg/mL) | Meropenem MIC alone (M) (KP1230 Klebsiella pneumoniae OXA-48 TEM SHV CTX-M-15): Y (MIC of 1 μg/mL to 10 μg/mL) | Meropenem MIC alone (M) (KP1231 Klebsiella pneumoniae OXA-48 TEM SHV CTX-M-15): Y (MIC of 1 μg/mL to 10 μg/mL) | Meropenem MIC alone (M) (KP1232 Klebsiella pneumoniae OXA-48 TEM SHV CTX-M-15): Z (MIC of greater than 10 μg/mL) | Meropenem MIC alone (M) (KP1234 Klebsiella pneumoniae OXA-48 TEM SHV CTX-M-15): Z (MIC of greater than 10 μg/mL) | Meropenem MIC alone (M) (KP1236 Klebsiella pneumoniae OXA-48 TEM SHV CTX-M-15): Z (MIC of greater than 10 μg/mL) | Meropenem MIC alone (M) (PM1024 Proteus mirabilis TEM-1(2b), CMY-16, VIM-1): Z (MIC of greater than 10 μg/mL) | Meropenem MIC alone (M) (PM1025 Proteus mirabilis SHV-5(2be), TEM-OSBL(2b), VEB-2, VIM-1): Y (MIC of 1 μg/mL to 10 μg/mL) | Meropenem MIC alone (M) (PM1026 Proteus mirabilis DHA-1, IMP-26): Z (MIC of greater than 10 μg/mL) | Meropenem MIC alone (M) (PM1027 Proteus mirabilis VIM-5): Z (MIC of greater than 10 μg/mL) | Meropenem MIC alone (M) (SM1023 Serratia marcescens VIM-4): Z (MIC of greater than 10 μg/mL) | Meropenem MIC alone (M) (SM1024 Serratia marcescens TEM-1(2b), IMP-47): Y (MIC of 1 μg/mL to 10 μg/mL)

— patent US10206937B2, “Boronic acid derivatives and therapeutic uses thereof” (Qpex Biopharma, Inc., priority 2014, dated 2019)
